Experimental data as given in patent publication US4371532A, “Malonamidooxadethiacephem compounds” (Shionogi & Co., Ltd., priority 1980, dated 1983).

Legend:
Escherichia coli EC-14 = assay: Minimal inhibitory concentration in vitro by serial dilution method on Mueller Hinton agar; type: cell-based; conditions: disodium salts (10), E. coli EC-14, Mueller Hinton agar
P. aeruginosa CN-5 = assay: Protection of mice from infection caused by Pseudomonas aeruginosa CN-5; type: in vivo; conditions: CN5, ip, inoculation = 7 × 10^3, two subc. inj. (mg/kg each) 1 and 5 hrs after intraperitoneal inoculation
Method: Five representative compounds in the preceding examples are assayed for protection of mice from infection caused by Pseudomonas aeruginosa to give the effects as in the following table. | two subc. inj. (given mg/kg each) 1 and 5 | hrs after intraperitoneal inoculation | *inoculation = 7 × 10^3 -

P. aeruginosa PS-24 = assay: Protection of mice from infection caused by Pseudomonas aeruginosa PS-24; type: in vivo; conditions: PS24, ip, inoculation = 1 × 10^4, two subc. inj. (mg/kg each) 1 and 5 hrs after intraperitoneal inoculation
Method: Five representative compounds in the preceding examples are assayed for protection of mice from infection caused by Pseudomonas aeruginosa to give the effects as in the following table. | two subc. inj. (given mg/kg each) 1 and 5 | hrs after intraperitoneal inoculation | **inoculation = 1 × 10^4

`COC1(NC(=O)C(C)C(=O)O)C(=O)N2C(C(=O)O)=C(CSc3nncs3)COC21` (centres unmarked) [Het=Tdz No. 1] showed an MIC (Escherichia coli EC-14; EC14, Het=Tdz) of 0.39 µg/mL.

`CCC(C(=O)O)C(=O)NC1(OC)C(=O)N2C(C(=O)O)=C(CSc3nncs3)COC21` (centres unmarked) [Het=Tdz No. 2] gave an MIC (Escherichia coli EC-14; EC14, Het=Tdz) of 0.2 µg/mL.

`CCCC(C(=O)O)C(=O)NC1(OC)C(=O)N2C(C(=O)O)=C(CSc3nncs3)COC21` (centres unmarked) [Het=Tdz No. 3] was tested, and the MIC (Escherichia coli EC-14; EC14, Het=Tdz) was 0.2 µg/mL.

In the case of `CCCCC(C(=O)O)C(=O)NC1(OC)C(=O)N2C(C(=O)O)=C(CSc3nncs3)COC21` (centres unmarked) [Het=Tdz No. 4], the MIC (Escherichia coli EC-14; EC14, Het=Tdz) is reported as 0.39 µg/mL.

`C=CCC(C(=O)O)C(=O)NC1(OC)C(=O)N2C(C(=O)O)=C(CSc3nncs3)COC21` (centres unmarked) [Het=Tdz No. 5] showed an MIC (Escherichia coli EC-14; EC14, Het=Tdz) of 0.39 µg/mL.

Work on `COC1(NC(=O)CC(=O)O)C(=O)N2C(C(=O)O)=C(CSc3nnnn3C)COC21` (centres unmarked) [Het=Tetr No. 1] yielded an MIC (Escherichia coli EC-14; EC14, Het=Tetr) of 1.56 µg/mL.

Compound `COC1(NC(=O)C(C)C(=O)O)C(=O)N2C(C(=O)O)=C(CSc3nnnn3C)COC21` (centres unmarked) [Het=Tetr No. 2] has an MIC (Escherichia coli EC-14; EC14, Het=Tetr) of 0.2 µg/mL.

Compound `CCC(C(=O)O)C(=O)NC1(OC)C(=O)N2C(C(=O)O)=C(CSc3nnnn3C)COC21` (centres unmarked) [Het=Tetr No. 3] has an MIC (Escherichia coli EC-14; EC14, Het=Tetr) of 0.1 µg/mL.

Work on `COC1(NC(=O)C(C(=O)O)C(C)C)C(=O)N2C(C(=O)O)=C(CSc3nnnn3C)COC21` (centres unmarked) [Het=Tetr No. 5] yielded an MIC (Escherichia coli EC-14; EC14, Het=Tetr) of 0.39 µg/mL.

Work on `COC1(NC(=O)C(CC(C)C)C(=O)O)C(=O)N2C(C(=O)O)=C(CSc3nnnn3C)COC21` (centres unmarked) [Het=Tetr No. 6] yielded an MIC (Escherichia coli EC-14; EC14, Het=Tetr) of 0.39 µg/mL.

`CCCCCCC(C(=O)O)C(=O)NC1(OC)C(=O)N2C(C(=O)O)=C(CSc3nnnn3C)COC21` (centres unmarked) [Het=Tetr No. 7] was tested, and the MIC (Escherichia coli EC-14; EC14, Het=Tetr) was 12.5 µg/mL.

For `C=CCC(C(=O)O)C(=O)NC1(OC)C(=O)N2C(C(=O)O)=C(CSc3nnnn3C)COC21` (centres unmarked) [Het=Tetr No. 8], the MIC (Escherichia coli EC-14; EC14, Het=Tetr) was 0.2 µg/mL.

Compound `CCCC(C(=O)O)C(=O)NC1(OC)C(=O)N2C(C(=O)O)=C(CSc3nnnn3C)COC21` (centres unmarked) [Het=Tetr R=n-C3 H7] has an MIC (Escherichia coli EC-14; EC14, Het=Tetr) of 0.1 µg/mL.

With `COC1(NC(=O)C(C(=O)O)c2ccc(O)cc2)C(=O)N2C(C(=O)O)=C(CSc3nnnn3C)COC21` (centres unmarked) [Reference, reference compound] the ED50 (P. aeruginosa CN-5) was 44.5 mg/kg and the ED50 (P. aeruginosa PS-24) was 20.4 mg/kg.

Work on `COC1(NC(=O)C(C)C(=O)O)C(=O)N2C(C(=O)O)=C(CSc3nnnn3C)COC21` (centres unmarked) [compound 1] yielded an ED50 (P. aeruginosa CN-5) of 22.3 mg/kg and an ED50 (P. aeruginosa PS-24) of 11.1 mg/kg.

For `CCC(C(=O)O)C(=O)NC1(OC)C(=O)N2C(C(=O)O)=C(CSc3nnnn3C)COC21` (centres unmarked) [compound 2], the ED50 (P. aeruginosa CN-5) was 22.2 mg/kg and the ED50 (P. aeruginosa PS-24) was 17.7 mg/kg.

For `COC1(NC(=O)C(C)C(=O)O)C(=O)N2C(C(=O)O)=C(CSc3nncs3)COC21` (centres unmarked) [compound 3], the ED50 (P. aeruginosa CN-5) was 33.8 mg/kg and the ED50 (P. aeruginosa PS-24) was 12.6 mg/kg.

`CCC(C(=O)O)C(=O)NC1(OC)C(=O)N2C(C(=O)O)=C(CSc3nncs3)COC21` (centres unmarked) [compound 4] was tested, and the ED50 (P. aeruginosa CN-5) was 32.5 mg/kg and the ED50 (P. aeruginosa PS-24) was 15.5 mg/kg.
